Data set [1] can be described thus: Mammalian cytotoxicity, MTT, HepG2. The note with it: human, HepG2 hepatocellular carcinoma cells. It is filed as cell-based, human. In a few lines:
(§1)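 HepG2 cells (1×10^5 cells/mL, phenol-red-free DMEM, 10% FBS) were exposed to 2-fold dilutions of compound at 1.56–200 μg/mL final, in triplicate, for 72 h at 37 °C, 5% CO2. MTT was added for 3 h and, after DMSO solubilization, absorbance was read at 570 nm. TD50 is the concentration giving a 50% growth reduction versus the water vehicle, reported as the mean of biological replicates ± SD.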

For data set [2], the system named is HepG2 hepatocellular carcinoma cells. Nature of the data set: Mammalian cytotoxicity, MTT, HepG2. Format: cell-based, human. In a few lines:
as §1

For the next data set, the system named is HPL1A lung cells. Nature of the data set: in vitro. It is filed as cell-based, human. On the procedure:
(§2) Hepatocellular carcinoma (HepG2), mouse fibroblast (3T3), human lung (HPL1A), and human keratinocyte (HaCat) cells were cultured in Dulbecco modified eagle media (DMEM) containing 10% fetal bovine serum (FBS) and 1% penicillin, streptomycin, and glutamine (PSG) at 37° C. and 5% CO2. Cells were collected and adjusted to […] to 4×10^5 cells/mL in phenol-red free DMEM and plated (100 μL) 96 well plates. 2-fold serial dilutions of 10× peptoid (11.1 μL) were added to each well in triplicate. Water (vehicle) was used as a negative control. Plates were incubated at 37° C. in 5% CO2 for 72 hours. Thiazolyl blue tetrazolium bromide (MTT) was added to each well (5 mg/mL; 20 μL) and incubated for 3 hours. Media was removed, DMSO (100 μL) was added, and plates were incubated at 37° C. for 10 minutes. Plates were read on a SpectraMax M5 plate reader (Abs. 570 nm). The concentration of compound resulting in a 50% reduction in growth compared to control (toxicity dose 50%; TD50) was determined using GraFit. This procedure was repeated three times on separate days.

The nature of the next data set: in vitro. It is filed as cell-based, human. The note with it: human. On the procedure: as §2
Another data set relates to HaCat keratinocyte cells. Briefly: in vitro. Format: cell-based, human. On the procedure: as §2
In data set [3] the test system is HepG2 hepatocellular carcinoma cells. The note with it: RMG8-8, previously published results (Green et al. 2021); cited from earlier work.
The test system of another data set is C. neoformans. Nature of the data set: microbe, parasite or virus in culture. The note with it: 72 h. Format: cell-based, Cryptococcus neoformans. On the procedure:
Cell solution was diluted into RPMI-MOPS (1:100) followed by another dilution into RPMI-MOPS (1:20). […] Plates were incubated for 72 hours at 35° C. MIC was determined as the lowest concentration of individual compound or combined compounds inhibiting pathogen growth. Fractional inhibitory concentration index (FICi) was determine using the following equation: FICi values were interpreted as follows: FICi<0.5 synergistic; 0.5≤FICi≤4 indifferent; FICi>4 antagonist (Johnson et al., Antimicrob. Agents Chemother. 48, 693-715 (2004)).

Each structure is given as a SMILES string. Converted amounts (≈) assume the structure as drawn. Where a SMILES comes first, the peptide text is derived from it. [ ]: non-standard residue; d: D form. N(tridecyl)Gly = CCCCCCCCCCCCCNCC(=O)O; Gly(N-2-aminoethyl) = NCCNCC(=O)O; Gly(N-cHex) = O=C(O)CNC1CCCCC1; Nleu = CC(C)CNCC(=O)O; Nlys = NCCCCNCC(=O)O

Take `CCCCCCCCCCCCCNCC(=O)N(CC(=O)N(CCCCN)CC(=O)N(CCN)CC(=O)N(CC(N)=O)CC(C)C)CC(C)C` [Compound 9] (H-[N(tridecyl)Gly][Nleu][Nlys][Gly(N-2-aminoethyl)][Nleu]-NH2): the CC50 at 72 h in data set [1] was 167 ± 75 µg/mL (≈ 235 µM).

Consider `CCCCCCCCCCCCCNCC(=O)N(CC(=O)N(CCCCN)CC(=O)N(CCN)CC(=O)N(CC(N)=O)C1CCCCC1)C1CCCCC1` [RMG8-8, Ntri-Ncha-Nlys-Nae-Ncha] (H-[N(tridecyl)Gly][Gly(N-cHex)][Nlys][Gly(N-2-aminoethyl)][Gly(N-cHex)]-NH2), for which the CC50 at 72 h worked out at 189 ± 43 µg/mL (≈ 248 µM) in data set [1] (Example 1, 72 hours, MTT, read-out: TD50 HepG2); 74 ± 8 µg/mL (≈ 97 µM) in “in vitro” (HPL1A lung cells); 54 ± 10 µg/mL (≈ 70.8 µM) in “in vitro” (HaCat keratinocyte cells). Moreover, the “TD50 HepG2” value in data set [2] amounted to 189 µg/mL. Further, the “TD50 HPL1A” value in the data set on HPL1A lung cells amounted to 74 µg/mL. The “TD50 HaCat” value in the data set with HaCat keratinocyte cells was determined as 54 µg/mL. The “HepG2 TD50” value in data set [3] was 189 ± 43 µg/mL. Also, the “MIC (compound alone)” value in the data set with C. neoformans stood at 1.56 µg/mL.

Source of the values: patent US20240352066A1, “ANTIMICROBIAL COMPOUNDS AND THE METHOD OF USE” (priority 2021, published 2024).
